The subject of data set [1] is HT29 cells. Put plainly: Neutral Red (NR) uptake assay, viability of HT29 cells. The note with it: Homo sapiens, HT-29; HT29 colon tumor cells, 24 h incubation. The format is cell-based. On the procedure: (§1) The HT29 cell line (ATCC no. HTB-38) (human colon adenocarcinoma) was used in the present study. Cells were cultivated in RPMI 1640 culture medium with 10% fetal calf serum (FCS) (GibcoTM, Paisley, UK), supplemented with antibiotics (100 U/mL penicillin and 100 μg/mL streptomycin) (Sigma, St. Louis, MO, USA). The cell culture was performed in standard conditions, i.e., at 37 °C in a humidified atmosphere with 5% CO2. The CCD 841 CoTr cell line (ATCC no. CRL-1807) (human normal colon epithelium) was cultivated in RPMI 1640 +DMEM (1:1) medium (Sigma, St. Louis, MO, USA) with 10% FCS and the addition of antibiotics. The culture was carried out at 34 °C in a 5% CO2/95% air atmosphere.
(§2) After seeding (1 × 10^5 cells/mL) in a 96-well plate, the cells were incubated for 24 h. Thereafter, the tested compounds (100 μL) at a concentration range of 0–200 μg/mL in the culture medium were added to the wells (100 μL). The incubation lasted for 24 h. After that time, the culture medium was removed and a 0.4% Neutral Red solution in the culture medium was added to each well. The incubation was continued for another 3 h. After the incubation, the medium with the NR dye was discarded, and 4% paraformaldehyde in 1% CaCl2 was added for cell fixation (200 μL) and incubated for 3 min. Intracellular dye deposits were solubilized using 1% […] in a 50% ethanol solution (100 μL). The plates were then gently shaken (20 min.) at room temperature to dissolve and release the dye from the cells. Finally, spectrophotometric measurement was performed at 540 nm using an EL800 Universal Microplate Reader (BioTek Instruments, Winooski, VT, USA).

For data set [2], the system named is CCD 841 CoTr cells. The experiment in a line: Neutral Red (NR) uptake assay, viability of CCD 841 CoTr cells. In kind it is cell-based. The note with it: Homo sapiens; CCD 841 CoTr colon normal cells, 24 h incubation. On the procedure:
as §1, §2

In data set [3] the test system is CCD 841 CoTr cells. The experiment in a line: MTT assay, metabolic activity of CCD 841 CoTr cells. In kind it is cell-based, human. The conditions noted are these: Homo sapiens, CCD-841, 24 h, CCD 841 CoTr colon normal cells, 24 h incubation; read-out: IC50 Values (MTT method). On the procedure: as §1
(§3) After seeding (1 × 10^5 cells/mL) in a 96-well plate, the cells were incubated for 24 h. Thereafter, the tested compounds (100 μL) at a concentration range of 0–200 μg/mL in the culture medium were added to the wells (100 μL). The incubation lasted for 24 h. After that time, an MTT solution (5 mg/mL, 25 μL/well) was added to each well. The incubation was continued for another 3 h. After the incubation, 10% sodium dodecyl sulfate (SDS) in 0.01 M HCl (100 μL) was added in order to dissolve the purple formazan crystals. Solubilization was carried out overnight. Finally, spectrophotometric measurement was performed at 570 nm using an EL800 Universal Microplate Reader (BioTek Instruments, Winooski, VT, USA).
Background: Tetrazolium dyes change colour on reduction, which living cells bring about.

Data set [4] relates to HT29 cells. The experiment in a line: Flow cytometry annexin V-FITC/PI, cell death types in HT29 cells. The format is cell-based, human. The conditions noted are these: HT29, 25 μg/mL, 24 h. Here is the method: (§4) In a further flow cytometric study measuring normal and tumor cell death types, the cells were exposed to the cannabinoids at a concentration of 25 μg/mL for 24 h.
(§5) The annexin V-fluorescein isothiocyanate (FITC)/propidium iodide (PI) apoptosis kit (BD Biosciences, BD Pharmingen™, San Jose, CA, USA) was used for the quantitative analysis of cannabinoid-induced cell death.
(§6) For the analyses, both adhered (after detaching the cells with 10 mM EDTA in PBS w/o Ca^2+ and Mg^2+ ions solution) and floating cells were collected after 24 h of incubation with the tested cannabinoids. After collection, the cells were gently centrifuged (1000 rpm/5 min.). Next, the supernatant was discarded, and the cell pellet was suspended in warm PBS w/o Ca^2+ and Mg^2+ ions and incubated for 5 min. at room temperature. The centrifugation procedure was repeated again and, following the manufacturer’s procedure, the cells were suspended in 100 μL of 1X Annexin V Binding Buffer with 5 μL of FITC Annexin V […] and 5 μL of propidium iodide (PI) (5 mM). The preparation was gently vortexed and incubated at room temperature for 15 min. in the dark. After that time, the cells were subjected to cytometric analysis. Before dosing the cells into the cytometer, 400 μL of 1X Binding Buffer was added. The cells were analyzed using a flow cytometer (BD FACSCalibur) with CellQuest Pro Version 6.0 software within 1 h after the staining was completed.

Data set [5] can be described thus: Flow cytometry annexin V-FITC/PI, cell death types in CCD 841 CoTr cells. The format is cell-based, human. The conditions noted are these: human, CCD 841 CoTr cells (normal cells), read-out: Percentage of viable cells. On the procedure:
as §4, §5, §6

The test system of data set [6] is CCD 841 CoTr cells. Described as above. In kind it is cell-based, human. The note with it: 25 μg/mL, 24 h. On the procedure: as §4, §5, §6
For data set [7], the system named is HT29 cells. Put plainly: MTT assay, metabolic activity of HT29 cells. In kind it is cell-based. The conditions noted are these: Homo sapiens, HT-29; HT29 colon tumor cells, 24 h incubation; read-out: IC50 Values (MTT method). On the procedure: as §1, §3
Data set [8] relates to CCD 841 CoTr cells. The experiment in a line: Flow cytometry (PI) cell cycle analysis of CCD 841 CoTr cells. The format is cell-based, human. The note with it: 25 μg/mL, 24 h. Here is the method: In the flow cytometric study, we assessed the impact of the cannabinoids at a concentration of 25 μg/mL on the distribution of cell cycle phases in the normal and cancer cells after 24 h incubation. Both adhered, and non-adsorbed (floating) cells were used to perform the analyses. They were collected after 24 h of incubation with the tested cannabinoids and centrifuged (3000 rpm/5 min.). Next, the cell pellet was rinsed and suspended in PBS w/o Ca^2+ and Mg^2+ ions and centrifuged again (3000 rpm/5 min.). The cell pellet was suspended and fixed in 70% ethanol (1 mL). Untreated cells served as a control. The cells were stored at −20 °C for 1 week. After that time, in accordance with the manufacturer protocol, the cells were subjected to the PI staining procedure (PI/RNase Staining Buffer, BD PharmingenTM, BD Biosciences, San Jose, CA, USA). Briefly, 1 mL of PBS w/o Ca^2+ and Mg^2+ ions was added to 1 mL of ethanol and incubated with gentle stirring for 5 min. at room temperature. Next, the cells were centrifuged (3000 rpm/5 min.) and suspended in PBS w/o Ca^2+ and Mg^2+ ions with gentle stirring for 5 min. at room temperature. The cells were centrifuged once again (3000 rpm/5 min.) and the cell pellet was suspended in 500 μL of PI/RNase Staining Buffer. The incubation was carried out for 15 min. at room temperature. Finally, the intensity of the PI fluorescence was measured using FACS Calibur (BD Pharmingen^TM). The obtained data were analyzed using Cell Quest Pro Version 6.0. for the Macintosh operating system (BD Pharmingen^TM). The percentage of cells in the appropriate phases of the cycle was calculated based on all analyzed gated cells. A total of 10,000 events were measured per sample.
Background: A flow cytometer gives signals particle by particle.

The test system of data set [9] is CCD 841 CoTr cells. The experiment in a line: Nitric oxide (NOx) release in CCD 841 CoTr culture, Griess method. The note with it: CCD 841 CoTr normal cells, 0–200 μg/mL, 24 h. The format is cell-based, human. Here is the method:
In this spectrophotometric method, the stable end products (nitrate and nitrite) were analyzed in the normal and tumor culture supernatants after 24 h of incubation of the cells with the cannabinoids in the concentration range of 0–200 μg/mL. The Griess reaction was applied. This method involves a 2-step reaction, whose product is a red-pink azo dye. The amount of this dye is directly proportional to the amount of NO. The cells were cultured for 24 h in 24-well plates (1 mL/well, density 1 × 10^5 cells/mL); next, after withdrawing the culture fluid, the tested cannabinoids were added to the wells at a volume of 1 mL/well and the incubation was carried out for another 24 h. After the incubation, the culture media were collected and frozen at −80 °C for no longer than 1 month. For calibration and quantitative analysis, the standard curve was prepared using 0.5–25 μM sodium nitrite (NaNO2). Thawed and centrifuged (5000 rpm/5 min.) supernatant samples and the standard were poured into a 96-well flat-bottomed plate at 100 µL/well. Each sample was analyzed in triplicate. Subsequently, 100 µL/well of Griess reagent (1% sulfanilamide/0.1% N-(1-naphthyl)ethylenediamine dihydrochloride) in 3% H3PO4 was added to all wells and incubated at room temperature for 10 min. Finally, the absorbance of the samples was spectrophotometrically read at 570 nm using an EL800 Universal Microplate Reader (BioTek Instruments, Winooski, VT, USA).

Converted amounts (≈) assume the structure as drawn.

As to `C=C(C)[C@@H]1CCC(C)=C[C@H]1c1c(O)cc(CCCCC)cc1O` [CBD, cannabidiol], the IC50 (as a rule, the midpoint of a concentration-inhibition curve) in data set [1] is 60.5 µg/mL (≈ 192 µM). This compound returned an IC50 in data set [2] of 48.2 µg/mL (≈ 153 µM). Also, in [3], the IC50 was found to be 42.6 µg/mL (≈ 135 µM). Also, in data set [4], the “Percentage of cells in early apoptosis” value is 0.77 ± 0.21%, the “Percentage of cells in late apoptosis” value is given as 17.03 ± 0.29 %, the “Percentage of cells in necrosis” value turned out to be 0.67 ± 0.22% and the “Reduction in the number of viable cells compared to the control” value came out at 13.62%. Further, in data set [4] (Homo sapiens, HT-29, read-out: Percentage of viable cells), the viability at 25 µg/mL was 81.54 ± 0.28%. Also, the viability at 24 h, 25 μg/mL in [5] turned out to be 79.4 ± 1.18%. For the same compound, in data set [6], the “Cells in late apoptosis, more than in the control” value was 11.36%; the “Cells in necrosis, more than in the control” value is 1.43%; the “Percentage of cells in early apoptosis” value worked out at 1.97 ± 0.19%; the “Percentage of cells in late apoptosis” value stood at 16.96 ± 1.26 %. Further, in data set [6], the “Percentage of cells in necrosis” value is on record as 1.71 ± 0.28 % and the “Reduction in the number of viable normal cells compared to the control” value was 12.95%. Also, the half-inhibitory concentration (IC50) in data set [7] was 57.5 µg/mL (≈ 183 µM). Also, in [8], the “Increase in the number of cells in the sub-G1 phase compared to the control” value is 21.88%, the “Percentage of cells in G1 phase” value is 21.89 ± 0.34 %, the “Percentage of cells in G2 phase” value came to 14.10 ± 0.19 % and the “Percentage of cells in S phase” value turned out to be 16.39 ± 0.04 %. Moreover, the “Percentage of cells in sub-G1 phase” value in [8] was determined as 44.01 ± 0.37 %. The “Effect on release of nitric oxide NOx (in words)” value in data set [9] was “increase in NOx levels with increasing concentration”.

For the origin of these results see paper PMC11475369, “Exploring the Potential of Synthetic Cannabinoids: Modulation of Biological Activity of Normal and Cancerous Human Colon Epithelial Cells” (Cells, 2024).
